Assay [1] relates to thrombin-induced blood platelet aggregation. The assay can be described thus: ex vivo inhibition of thrombin-induced blood platelet aggregation (PAI) in rabbits after p.o. dosing. Further details: species or system rabbit. To be noted: p.o. 5 mg/kg. The protocol: (§1) The anticoagulant and platelet aggregation inhibiting effect of the compounds of general formula (I) was studied in New Zealand white rabbits ex vivo according to D. Bagdy et al. [Thromb. Haemost. 67, 357 (1992)]. The compounds were dissolved in buffered isotonic saline solution and administered i.v. (0,04-5.0 mg/kg) or by infusion (0.25-5.0 mg/kg/h) or subcutaneously (0.5-6.0 mg/kg) or p.o. (2.5-20 mg/kg). The effect of the compounds was detectable already within 30 minutes following p.o. administration, peak values were attained after 60-180 minutes and the therapeutic level was maintained dose-dependently for 3→6 hours.
(§2) The in vivo effect of ethoxycarbonyl-3-cyclobutyl-D-alanyl-L-prolyl-L-arginine aldehyde (1) is presented in detail in Tables 6 and 7. The corresponding values of C1 are listed as controls. The compound was administered p.o. in doses of 5 mg/kg. The blood samples drawn from the caudal vein in every 30-60 minutes were analysed. The whole blood clotting time (WBCT) and the inhibition of thrombin-induced blood platelet aggregation (PAI) were determined. The activated partial thromboplastin time (APTT) and the thrombin time (TT) in the citrate plasma obtained from the blood sample were also measured. The APTT and TT values are compiled in Table 6 and the WBCT and PAI values in Table 7.

The test system of assay [2] is citrate plasma. Kind of assay: prothrombin time (PT) plasma clotting test. The class given is biochemical. The protocol:
(§3) Anticoagulant activity (i.e. inhibition of the proteolytic reactions in the process) is measured by anticoagulant tests, e.g. in the thrombin time (TT), activated partial thromboplastin time (APTT) and prothrombin time (PT) tests [E. J. W. Bovie et al., Mayo Clinic Laboratory Manual of Haemostasis; W. B. Saunders Co., Philadelphia (1971)]. Plasma, inhibited in spontaneous coagulation, e.g. citrate-plasma, is made to coagulate and the required coagulation time is measured. Upon the action of anticoagulants the coagulation time is prolonged proportionally to the inhibition of the reaction(s) in the process. The anticoagulant effect can be characterised by the substance concentration required to prolong the coagulation time twofold compared to the control (IC50). The effect of anticoagulants on individual coagulant proteases is measured by the amidolytic method [R. Lottenberg et al., Methods in Enzymol. 80, 341 (1981); G. Cleason, Blood Coagulation and Fibrinolysis 5, 411 (1994)]. The isolated active factor (e.g. thrombin, fXa) and its chromogen or fluorogen peptide-amide substrate are reacted in the presence or absence of the inhibitor, resp. The enzyme inhibiting action is characterised by the inhibitory constant (IC50) measured during amidolysis.
(§4) In the TT test coagulation is initiated by the thrombin added to the citrate plasma. In the system 22 pmol/ml of thrombin is functioning and its inhibition can be measured on the fibrinogen (one of the natural substrates of thrombin) in the presence of plasma components. In the APTT and PT tests the full coagulation process takes place. Depending on the activator fX is activated either by the extrinsic or the intrinsic pathway. The generated fXa activates prothrombin to thrombin which, in turn, triggers plasma coagulation. The coagulation time is prolonged if the enzymes or one of them is inhibited by the inhibitor. In the APTT and PT tests at most 40 pmol/ml Xa can be generated (this is the full amount of factor X present in both systems) while 150 pmol/ml (APTT) and 350 pmol/ml (PT) of thrombin are generated [B. Kaiser et al., Thromb. Res. 65, 157 (1992)].
(§5) The in vitro anticoagulant effects of the compounds of general formula (I) was measured by the prothrombin time (PT), activated partial thromboplastin time (APTT) and thrombin time (TT) tests [D. Bagdy et al., Thromb. Haemost. 67, 325 (1992)]. The fxa-inhibiting effect of the compounds was also determined using the Bz-Ile-Glu-Gly-Arg-pNA chromogen substrate (see method M6).

The conditions of assay [3]: C. V. Jackson et al. 1993; cited from earlier work.
Assay [4] has as its system New Zealand white rabbits. Kind of assay: ex vivo TT in citrate plasma of rabbits after p.o. dosing. More on the design: species or system rabbit. The settings on record: p.o. 5 mg/kg, 90 min. On the procedure:
as §1, §2

In the next assay the target is urokinase (UK) (Homo sapiens, UniProt P00749). The assay can be described thus: fibrin-plate method, plasmin formation induced by urokinase. To be noted: related to the activity of C1 (1/IC50 = 1). The class given is biochemical. The text has this: (§6) The inhibitory effect of the new compounds of the invention on plasmin (PL) as well as on plasmin formation induced by tissue plasminogen activator (tPA) and urokinase (UK) was examined by the fibrin-plate method [D. Bagdy et al.: Thromb. Haemost. 67, 325 (1992)]. Compounds C1 and C5 served as controls. […] V. Jackson et al.: J. Cardiovasc. Pharmacol. 21, 587 (1993))]. In Table 4 the results obtained with the new compounds 1 and 2 as well as those with controls C1 and C5 are presented as an example.

The target of a further assay is plasmin (PL) (Homo sapiens, UniProt P00747). The assay can be described thus: fibrin-plate method, plasmin. The assay is classed as biochemical. To be noted: related to the activity of C1 (1/IC50 = 1).
Excerpt: as §6

Assay [5] deals with tissue plasminogen activator (tPA) (Homo sapiens, UniProt P00750). The assay can be described thus: fibrin-plate method, plasmin formation induced by tPA. The assay is classed as biochemical. To be noted: related to the activity of C1 (1/IC50 = 1).
Excerpt: as §6

The target in the next assay is thrombin (Homo sapiens, UniProt P00734). Kind of assay: thrombin time (TT) plasma clotting test. The assay is classed as biochemical. The settings on record: Table 3; twofold prolongation compared to control; read-out: A: anticoagulant IC50, TT. The protocol: as §3, §4, §5
For a further assay, the target named is T1, clot-bound fXa (Homo sapiens, UniProt P00742).
T1 construct: from tissue; host or cells: clot of recalcified human platelet-rich plasma
The assay can be described thus: inhibition of plasma clot-bound factor Xa (Methods M1, M2). The class given is biochemical. To be noted: text b187, well below. The protocol: Plasma-clot was obtained by recalcificating platelet-rich human plasma, and fibrin gel by clotting human fibrinogen with human thrombin. For the activity measures of fXa and thrombin Z-D-Arg-Gly-Arg-pNA or Tos-Gly-Pro-Arg-pNA substrates were used in agreement with Methods M1-M3.
Preparation of Clots from Human Plasma
a) Platelet-rich plasma is prepared by centrifuging a 9:1 mixture of human blood and 3.8% sodium citrate solution for 5 min. at 240×g.
b) 200 μl platelet-rich plasma and 80 μl 40 mM CaCl2 solution are allowed to stand at room temperature for 1 hour. The thus-formed clot is washed with 6×2 ml of 0.9% NaCl solution with gentle stirring to remove the residual enzymes (thrombin and factor Xa). The washing medium is assayed for thrombin-like activity as follows:
c) To 400 μl of washing medium 100 μl of 1 mM Tos-Gly-Pro-Arg-pNA substrate solution is added, the mixture is incubated for 30 min at 37° C., then the reaction is stopped with 100 μl of 50% acetic acid. From this mixture 150 μl aliquots are applied onto a 96-well microtitre plate and the extinction coefficients are measured at 405 nm (ELISA READER SLT Laborinstrument GmbH, Austria). […]
c) From each reaction vessel 150 μl is applied onto a 96 well microtitre plate and extinction coefficients are measured at 405 nm (ELISA READER SLT Laborinstrument GmbH, Austria). […]

The subject of assay [6] is citrate plasma. Kind of assay: activated partial thromboplastin time (APTT) plasma clotting test. The class given is biochemical. To be noted: Table 3; twofold prolongation compared to control; read-out: A: anticoagulant IC50, APTT. On the procedure: as §3, §4, §5
Another assay deals with T2, isolated human fXa (Homo sapiens, UniProt P00742).
T2 construct: The isolated active factor (e.g. thrombin, fXa) and its chromogen or fluorogen peptide-amide substrate are reacted; purchased SIGMA
Kind of assay: fXa inhibition in solution, amidolytic method on Bz-Ile-Glu-Gly-Arg-pNA chromogen substrate (Method M6). The assay is classed as biochemical. The settings on record: Table 3; isolated human fXa, Bz-Ile-Glu-Gly-Arg-pNA; read-out: B: fXa inhibiting IC50. On the procedure: as §3, §5
Determination of Factor Xa Inhibition in Solution on a 96-well Microtitre Plate
a) By means of phosphate buffer (0.1M sodium phosphate and 0.05M sodium chloride, pH=7.4) 1.3 E/ml solution is prepared from human factor Xa (SIGMA), and 0.1-1.0-10 and 100 μg/ml solutions from the peptide inhibitors. The Bz-Ile-Glu-Gly-Arg-pNA substrate is used in distilled water solution ([…]).
b) From the control and the peptide inhibitor solutions (3 parallel samples of each concentration) 30-30 μl aliquots are placed into the wells. 30 μl of factor Xa, 90 μl of buffer and 150 μl of substrate are added to the peptide solution and the extinction is determined after 10 min. at 405 nm. Thereafter the steps are the same as in M2/c.

Some results are limits rather than exact numbers.

T2 sequence (P00742 235-488 limits assumed): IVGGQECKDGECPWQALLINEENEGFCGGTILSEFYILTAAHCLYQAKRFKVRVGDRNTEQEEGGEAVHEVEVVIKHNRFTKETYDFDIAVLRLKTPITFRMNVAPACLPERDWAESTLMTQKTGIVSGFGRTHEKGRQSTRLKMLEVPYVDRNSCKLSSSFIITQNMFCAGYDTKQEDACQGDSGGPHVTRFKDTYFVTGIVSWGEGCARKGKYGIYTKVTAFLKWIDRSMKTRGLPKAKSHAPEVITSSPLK
T2 sequence (P00742 41-179 partner limits assumed): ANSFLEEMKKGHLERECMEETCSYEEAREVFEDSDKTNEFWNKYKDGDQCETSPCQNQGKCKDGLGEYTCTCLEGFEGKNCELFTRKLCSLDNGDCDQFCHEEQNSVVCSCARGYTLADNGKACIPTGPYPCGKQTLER
T1 sequence (P00742 235-488 limits assumed): as the sequence (P00742 235-488 limits assumed) above
T1 sequence (P00742 41-179 partner limits assumed): as the sequence (P00742 41-179 partner limits assumed) above
tissue plasminogen activator (tPA), sequence (P00750 36-562, species assumed): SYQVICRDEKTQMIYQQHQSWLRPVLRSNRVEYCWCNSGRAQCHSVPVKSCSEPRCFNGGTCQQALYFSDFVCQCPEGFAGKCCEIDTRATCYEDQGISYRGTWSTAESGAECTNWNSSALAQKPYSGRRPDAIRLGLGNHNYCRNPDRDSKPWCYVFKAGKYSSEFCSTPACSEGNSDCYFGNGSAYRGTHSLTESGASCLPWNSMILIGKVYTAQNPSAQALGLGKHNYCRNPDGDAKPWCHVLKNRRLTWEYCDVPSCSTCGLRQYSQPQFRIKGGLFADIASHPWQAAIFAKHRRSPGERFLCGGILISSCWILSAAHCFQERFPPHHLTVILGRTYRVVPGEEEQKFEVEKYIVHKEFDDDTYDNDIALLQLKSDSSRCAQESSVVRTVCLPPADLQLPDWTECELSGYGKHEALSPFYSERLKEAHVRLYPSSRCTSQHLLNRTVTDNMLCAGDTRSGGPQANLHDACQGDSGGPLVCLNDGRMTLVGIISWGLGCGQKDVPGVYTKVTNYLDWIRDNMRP
plasmin (PL), sequence (P00747 581-810 limits assumed, species assumed): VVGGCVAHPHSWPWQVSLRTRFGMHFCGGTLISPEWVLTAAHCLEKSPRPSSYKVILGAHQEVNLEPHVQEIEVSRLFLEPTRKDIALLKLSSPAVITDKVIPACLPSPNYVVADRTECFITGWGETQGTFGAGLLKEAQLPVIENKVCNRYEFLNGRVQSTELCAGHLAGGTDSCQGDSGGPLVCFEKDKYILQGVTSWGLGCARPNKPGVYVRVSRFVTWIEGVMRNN
plasmin (PL), sequence (P00747 97-580 partner limits assumed, species assumed): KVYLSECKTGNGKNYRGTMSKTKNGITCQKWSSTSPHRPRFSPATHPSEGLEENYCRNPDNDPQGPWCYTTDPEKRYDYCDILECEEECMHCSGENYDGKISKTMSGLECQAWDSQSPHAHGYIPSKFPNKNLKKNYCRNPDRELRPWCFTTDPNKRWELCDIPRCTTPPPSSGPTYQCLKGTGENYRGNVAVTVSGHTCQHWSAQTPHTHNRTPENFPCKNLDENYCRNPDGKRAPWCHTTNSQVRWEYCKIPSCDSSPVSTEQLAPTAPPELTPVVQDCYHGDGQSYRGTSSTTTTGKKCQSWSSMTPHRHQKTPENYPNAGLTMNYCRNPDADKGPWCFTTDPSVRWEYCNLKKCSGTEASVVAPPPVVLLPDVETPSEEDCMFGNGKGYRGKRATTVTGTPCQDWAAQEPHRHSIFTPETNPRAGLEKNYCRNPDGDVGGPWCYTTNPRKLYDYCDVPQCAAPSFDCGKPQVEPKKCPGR

Regarding `CN[C@H](Cc1ccccc1)C(=O)N1CCC[C@H]1C(=O)N[C@H](C=O)CCCNC(=N)N` [Example C1, D-MePhe-Pro-Arg-H, reference compound], the “PAI (%), percentual inhibition of platelet aggregation” value is 1.0% in assay [1] (0 min); 52.8 ± 14.7% in [1] (30 min); 58.4 ± 15.6% in assay [1] (45 min); 54.2 ± 11.6% in assay [1] (60 min); 83.2 ± 8.9% in assay [1] (90 min); 75.2 ± 12.3% in assay [1] (120 min). The “PAI (%), percentual inhibition of platelet aggregation” value stood at 47.5 ± 20.9% in [1] (180 min) and 32.2 ± 16.0% in [1] (240 min). Also, the IC50 with citrate plasma [2] (Table 2, concentration prolonging clotting time twofold, read-out: A: anticoagulation IC50, PT) was determined as 2.93 µM. In addition, the “antifibrinolytic effect in vivo” value in assay [3] is “insignificant”. For the same compound, the “TT relative clotting time” value in assay [4] came out at 10.50 ± 4.59. The “B: relative efficiency, UK” value on urokinase (UK) is 1.0. Moreover, at plasmin (PL), the “B: relative efficiency, PL” value stood at 1.0. In addition, the “B: relative efficiency, tPA” value in [5] stood at 1.0.

`CC(C)OC(=O)N[C@H](CC1CCC1)C(=O)N1CCC[C@H]1C(=O)N[C@H](C=O)CCCNC(=N)N` [Example 3, Isopropoxycarbonyl-3-cyclobutyl-D-alanyl-L-prolyl-L-arginine aldehyde]: the IC50 with citrate plasma [2] (Table 3, twofold prolongation compared to control, read-out: A: anticoagulant IC50, PT) was 1.7 µM; on thrombin, 0.19 µM; on clot-bound fXa, below 1 µM; with citrate plasma [6], 0.6 µM; at isolated human fXa, 0.036 µM.

As a reminder, the IC50 is the point on the concentration scale where inhibition reaches its midpoint.

The values above are taken from patent US6235707A, “Anticoagulant peptidyl-arginine aldehyde derivatives” (Gyogyszerkutato Intezet Kft., priority 1996, dated 2001).
